A short description of data set [1]: Half life in C57BL/6J mouse at 20 mg/kg, sc by LC-MS/MS analysis. Particulars: in vivo. The class given is ADME, organism-based.
The nature of data set [2]: Terminal half life in C57BL/6 mouse plasma at 1 mg/kg, sc by LC-MS analysis. The class given is ADME, organism-based. Particulars: read-out: beta t1/2 (converted).
Data set [3] is described as follows: Tmax in C57BL/6 mouse plasma at 1 mg/kg, sc by LC-MS analysis. Format: ADME, organism-based.
Data set [4] addresses T1, Oxytocin receptor (Homo sapiens) (UniProt P30559).
T1 sequence (whole entry): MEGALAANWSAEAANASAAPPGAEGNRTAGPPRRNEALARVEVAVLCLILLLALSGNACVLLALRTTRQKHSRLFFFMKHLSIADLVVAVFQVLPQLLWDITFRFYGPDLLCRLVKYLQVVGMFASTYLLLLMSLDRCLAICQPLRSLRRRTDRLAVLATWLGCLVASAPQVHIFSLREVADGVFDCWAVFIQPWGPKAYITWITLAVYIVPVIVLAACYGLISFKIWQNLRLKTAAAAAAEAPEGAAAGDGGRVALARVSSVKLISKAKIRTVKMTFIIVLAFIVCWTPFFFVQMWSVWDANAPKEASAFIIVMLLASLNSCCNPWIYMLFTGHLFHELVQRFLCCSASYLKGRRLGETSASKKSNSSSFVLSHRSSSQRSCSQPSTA
Briefly: Ratio of EC50 for agonist activity at recombinant human Gi/Go-coupled OTR expressed in CHOK1 cells in presence of 10% FBS to EC50 for agonist activity at recombinant human Gi/Go-coupled OTR expressed in CHOK1 cells in absence of 10% FBS. Format: cell-based.

Data set [5] concerns Mus musculus. Briefly: Anorexigenic activity in C57BL/6J mouse assessed as reduction in body weight at 0.1 mg/kg, sc measured daily for 2 days. Format: functional, organism-based.
The target of data set [6] is T2, Oxytocin receptor (Homo sapiens, UniProt P30559).
T2 sequence (P30559 whole entry): T1 sequence (whole entry)
Briefly: Agonist activity at recombinant human Gi/Go-coupled OTR expressed in CHOK1 cells assessed as induction of beta-arrestin recruitment measured after 90 mins in presence of 10% FBS by pathhunter assay. Format: cell-based.

Data set [7] deals with Mus musculus. The data set can be described thus: Anorexigenic activity in sc dosed C57BL/6J mouse […] model assessed as reduction in food intake administered once daily for 9 days and measured daily during compound dosing. The class given is functional, organism-based.
For data set [8], the target named is T1, Oxytocin receptor (Homo sapiens). The data set can be described thus: Agonist activity at recombinant human Gi/Go-coupled OTR expressed in CHOK1 cells assessed as induction of beta-arrestin recruitment measured after 90 mins in absence of 10% FBS by pathhunter assay relative to oxytocin. The class given is cell-based. In general terms: Arrestin recruitment assays detect the binding of arrestin to an activated receptor.

The subject of data set [9] is Mus musculus. Briefly: Anorexigenic activity in sc dosed C57BL/6J mouse […] model assessed as reduction in body weight administered once daily for 9 days and measured daily during compound dosing. The class given is functional, organism-based.
Data set [10] in a line: Ratio of drug level in brain to plasma in C57BL/6 mouse at 1 mg/kg, sc measured after 7 hrs by LC-MS analysis. The class given is ADME, organism-based. Particulars: read-out: BPR.
Data set [11] can be described thus: Drug level in C57BL/6 mouse at 1 mg/kg, sc measured after 24 hrs by LC-MS analysis. Particulars: in vivo, read-out: Drug uptake. Format: ADME, organism-based.
For data set [12], the target named is T2, Oxytocin receptor. The data set can be described thus: Agonist activity at recombinant human Gi/Go-coupled OTR expressed in CHOK1 cells assessed as induction of beta-arrestin recruitment measured after 90 mins in absence of 10% FBS by pathhunter assay. The class given is cell-based.
Data set [13] in a line: Cmax in C57BL/6 mouse plasma at 1 mg/kg, sc by LC-MS analysis. The class given is ADME, organism-based. The arrangement: dose 1 mg/kg, route subcutaneous.
Data set [14] relates to Mus musculus. The data set can be described thus: Anorexigenic activity in C57BL/6J mouse assessed as reduction in food intake at 0.1 mg/kg, sc measured at 3 hrs interval for 24 hrs. Format: functional, organism-based.
The target of a further data set is Vasopressin V2 receptor (Homo sapiens, UniProt P30518). The data set can be described thus: Agonist activity at recombinant human V2 receptor expressed in CHOK1 cells assessed as increase in cAMP level measured after 30 mins by HTRF assay. Format: cell-based.
Data set [15] is described as follows: AUC (0 to last) in C57BL/6 mouse plasma at 1 mg/kg, sc by LC-MS analysis. Format: ADME, organism-based. Further details: dose 1 mg/kg, time 0 - last, route subcutaneous.
The nature of data set [16]: Aqueous solubility of the compound. Format: physicochemical. The note with it: buffer.
Data set [17] has as its target T1, Oxytocin receptor (Homo sapiens). The data set can be described thus: Agonist activity at recombinant human Gi/Go-coupled OTR expressed in CHOK1 cells assessed as induction of beta-arrestin recruitment measured after 90 mins in presence of 10% FBS by pathhunter assay relative to oxytocin. The class given is cell-based.
A short description of data set [18]: Half life in C57BL/6J mouse. The class given is ADME. Particulars: in vivo.

Seven compounds from ChEMBL document CHEMBL4321872, “Engineering a Potent, Long-Acting, and Periphery-Restricted Oxytocin Receptor Agonist with Anorexigenic and Body Weight Reducing Effects” (J Med Chem, 2020) can be followed below.

Calls of active or inactive are those of the source. The rule behind the calls is not given here. Numbered stars: 1 amine (or outer) side, 2 acyl side, 3 side chain; on linkers, the order of the positions; unused ones are H or OH. Bridge positions count the residues as written; N and C are the ends. Square brackets hold non-standard residues; d marks the D form. Side chains are listed from the residue outwards. Peptide text beside a SMILES is read from it. * marks the point of attachment. X1 = O=C(O)CCCCCCCCCCCCCCCCC(=O)N[C@@H](CCCCNC(=O)CCOCCOCCNC(=O)CCOCCOCCNC(=O)C*)C(=O)O; PEG8 = NCCOCCOCCOCCOCCOCCOCCOCCOCCC(=O)O; X3 = CCCCCCCCCCCCCC(=O)NCCOCCOCCNC(=O)C*; Palmitoyl = CCCCCCCCCCCCCCCC(=O)*; X2 = O=C(CCC[*:2])[*:1]; Sar = CNCC(=O)O; Cam = NC(=O)C*

Vasopressin V2 receptor, sequence (P30518 whole entry): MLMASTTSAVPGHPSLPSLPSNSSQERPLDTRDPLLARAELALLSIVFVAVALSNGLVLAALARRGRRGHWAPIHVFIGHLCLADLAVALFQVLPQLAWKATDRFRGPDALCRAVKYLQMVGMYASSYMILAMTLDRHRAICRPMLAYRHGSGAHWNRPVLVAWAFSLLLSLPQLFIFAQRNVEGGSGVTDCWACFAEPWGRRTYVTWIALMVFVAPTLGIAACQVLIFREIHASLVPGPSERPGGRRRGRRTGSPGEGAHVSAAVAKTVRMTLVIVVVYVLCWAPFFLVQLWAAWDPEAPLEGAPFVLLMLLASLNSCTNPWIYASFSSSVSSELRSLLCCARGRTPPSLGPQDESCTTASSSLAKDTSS

As to `CCCCCCCCCCCCCCCC(=O)NCCOCCOCCOCCOCCOCCOCCOCCOCCC(=O)NCCCC[C@H](NC(=O)CNC(=O)[C@@H]1CSSC[C@H](N)C(=O)N[C@@H](Cc2ccc(O)cc2)C(=O)N[C@@H]([C@@H](C)CC)C(=O)N[C@@H](CCC(N)=O)C(=O)N[C@@H](CC(N)=O)C(=O)N1)C(=O)NCC(N)=O` (H-CYIQNCGK([PEG8-Palmitoyl])G-NH2; disulfide 1-6), in [1], the half-life was 20 h.

Turning to `CC[C@H](C)[C@@H]1NC(=O)[C@H](Cc2ccc(O)cc2)NC(=O)CCCSC[C@@H](C(=O)NCC(=O)N[C@@H](CSCC(=O)NCCOCCOCCC(=O)NCCOCCOCCC(=O)NCCCC[C@H](NC(=O)CCCCCCCCCCCCCCCCC(=O)O)C(=O)O)C(=O)NCC(N)=O)NC(=O)[C@H](CC(N)=O)NC(=O)[C@H](CCC(N)=O)NC1=O` (YIQNCGC(X1)G-NH2; linker N-5 via X2), the half-life in [2] is 24.2 h. The Tmax in data set [3] worked out at 7 h. Besides, the Ratio EC50 in [4] worked out at 74.7. For the same compound, the result with Mus musculus [5] and in the data set with Mus musculus [14] was Active. The EC50 amounted to 193 nM at Oxytocin receptor [6], 2.58 nM on Oxytocin receptor [12] and 1800 nM on Vasopressin V2 receptor. Further, the Activity result in the data set on Mus musculus [7] and in the data set on Mus musculus [9] was “Dose-dependent effect” in each case. In addition, the %max in data set [8] amounted to 125%. The Kp at 7 h in data set [10] came out at 0.005. For the same compound, in data set [11], the concentration at 24 h was more than 850 nM. The compound further had a Cmax in data set [13] of 9110 ng/mL. Further, the exposure AUC(0-t) in data set [15] came out at 350 µg·h/mL. Besides, the solubility result in data set [16] was “Soluble”.

On to `CCCCCCCCCCCCCC(=O)NCCOCCOCCNC(=O)CSC[C@H](NC(=O)CNC(=O)[C@@H]1CSCCCC(=O)N[C@@H](Cc2ccc(O)cc2)C(=O)N[C@@H]([C@@H](C)CC)C(=O)N[C@@H](CCC(N)=O)C(=O)N[C@@H](CC(N)=O)C(=O)N1)C(=O)N(C)CC(N)=O` (YIQNCGC(X3)[Sar]-NH2; linker N-5 via X2), for which, in data set [4], the Ratio EC50 amounted to 5.4. Also, the values for the EC50 on Oxytocin receptor [6] and at Oxytocin receptor [12] were 56.9 nM and 10.5 nM, respectively. In addition, in [8], the %max was 57%.

`CC[C@H](C)[C@@H]1NC(=O)[C@H](Cc2ccc(O)cc2)NC(=O)CCCSC[C@@H](C(=O)N2CCC[C@H]2C(=O)N[C@@H](CC(C)C)C(=O)NCC(N)=O)NC(=O)[C@H](CC(N)=O)NC(=O)[C@H](CSCC(N)=O)NC1=O` (YIC(Cam)NCPLG-NH2; linker N-5 via X2): the concentration for a half-maximal effect (EC50) at Oxytocin receptor [6] came to 14.4 nM. The %max in [17] worked out at 47%.

Regarding `CC[C@H](C)[C@@H]1NC(=O)[C@H](Cc2ccc(O)cc2)NC(=O)CCCSC[C@@H](C(=O)N2CCC[C@H]2C(=O)N[C@@H](CSCC(N)=O)C(=O)NCC(N)=O)NC(=O)[C@H](CC(N)=O)NC(=O)[C@H](CCC(N)=O)NC1=O` (YIQNCPC(Cam)G-NH2; linker N-5 via X2), the EC50 on Oxytocin receptor [6] was 4.8 nM. Besides, the %max in data set [17] is 97%.

In the case of `CCCCCCCCCCCCCC(=O)NCCOCCOCCNC(=O)CSC[C@H](NC(=O)[C@@H]1CCCN1C(=O)[C@@H]1CSCCCC(=O)N[C@@H](Cc2ccc(O)cc2)C(=O)N[C@@H]([C@@H](C)CC)C(=O)N[C@@H](CCC(N)=O)C(=O)N[C@@H](CC(N)=O)C(=O)N1)C(=O)NCC(N)=O` (YIQNCPC(X3)G-NH2; linker N-5 via X2), on Oxytocin receptor [6], the EC50 came to 5.28 nM. For the same compound, the %max in [17] was found to be 70%.

For the compound `CC[C@H](C)[C@@H]1NC(=O)[C@H](Cc2ccc(O)cc2)NC(=O)[C@@H](N)CSSC[C@@H](C(=O)N2CCC[C@H]2C(=O)N[C@@H](CC(C)C)C(=O)NCC(N)=O)NC(=O)[C@H](CC(N)=O)NC(=O)[C@H](CCC(N)=O)NC1=O` [OXYTOCIN], in [18], the half-life was in the range of 2 to 3 min.

In general, Tmax refers to the time at which the peak concentration occurs. The term EC50 denotes the concentration giving half of the maximal effect. One may read the Cmax as the peak of the concentration-time curve. Broadly, the AUC(0-t) is exposure summed from dosing to a finite time, without extrapolation to infinity.
